Data from PMC10961089, “Epidermal growth factor receptor inhibition potentiates chemotherapeutics‐mediated sensitization of metastatic breast cancer stem cells” (Cancer Reports, 2024).

Experiments:
MDA‐MB‐468 = test: Cell migration (chemotaxis), Boyden-Chamber assay; format: cell-based, human; details: Doxorubicin 0.01 μM + compound 5 μM (PD153035 10 μM) vs 10% FBS and Doxorubicin alone
Description: (§1) TNBC cell lines—MDA‐MB‐231, MDA‐MB‐468, and the sorted CD24^+‐breast cancer cells, and CD24^−/CD44^+‐breast CSC populations from MDA‐MB‐231 [6] were seeded at a density of 1 × 10^6 cells/well to evaluate their migratory potential by Boyden‐Chamber assay. […] At the end of the treatment period, the cells were plated at a density of 5 × 10^3 cells/well in the upper chamber of the Boyden chamber assembly and 10% FBS in the lower chamber was used as a chemoattractant. Separately, the cells in the upper chamber were treated with Doxorubicin (0.01–0.1 μM) alone or with the potential EGFR inhibitors (compounds—1c, 1e, 1g, 1h, 1j, and 1k (5 μM) based on their low IC50 values) or a commercial EGFR inhibitor, PD153035 (10 μM) and incubated for 4 h followed by fixation and staining as described previously.[28], [29]

MDA‐MB‐231 = test: Cell migration (chemotaxis), Boyden-Chamber assay; format: cell-based, human; details: Doxorubicin 0.01 μM + compound 5 μM (PD153035 10 μM) vs 10% FBS and Doxorubicin alone
Description: as §1

[1] = tested on: human CD44, ALDH1A1, Fibronectin, N‐Cadherin, Vimentin in tumor tissue; test: qRT-PCR of human CSC/EMT genes in tumor tissues; format: in vivo, C57BL/6 mice
Description: Additionally, total RNA was isolated from tumor tissues and utilized for cDNA synthesis (Thermo Scientific, Massachusetts, USA). To determine the transcriptional regulation of expression of EMT genes in tumor tissues subjected to various treatment regimes, quantitative real‐time PCR (qRT‐PCR) analysis was performed as described previously[28] using human gene‐specific forward and reverse primers of EMT genes. Amplification of Eukaryotic 18S rRNA served as an internal control and was utilized to calculate the fold change in expression.[29]
Animal studies have been carried out with the prior approval of the Institutional Animal Ethics Committee (IICT/IAEC/025/2023). C57BL/6 female mice of age 6–8 weeks (N = 35) were initially immunosuppressed with cyclophosphamide (50 mg/kg of body weight, i.p) on alternate days for 2 weeks. For generating a preclinical orthotopic xenograft tumor model, 2 × 10^6 GFP expressing sorted stable CD24^+‐breast cancer cells and CD24^−/CD44^+‐breast CSCs were orthotopically xeno‐transplanted subcutaneously at the fourth mammary fat pad of immune‐suppressed mice (n = 5/group). Subsequently, intratumoral administration of Doxorubicin at a low dose (2.5 mg/kg of body weight), high dose (10 mg/kg of body weight), and/or combinatorial treatment of the potent EGFR inhibitor, compound 1e (50 mg/kg of body weight) or the commercial EGFR inhibitor, PD153035 (50 mg/kg of body weight) with a low dose of doxorubicin was performed to the palpable tumors of breast CSCs at day‐3 post‐transplantation.

[2] = tested on: Bax and Cytochrome‐C in MDA‐MB‐231 cells; test: Gene expression of apoptotic genes, semi-quantitative RT-PCR; format: cell-based, human; details: MDA-MB-231, doxorubicin + compound 5 μM, 24 h
Description: Briefly, the cells were incubated at 37°C with serum starvation followed by culturing as described above. […] Briefly, the template RNA (1 μg) was utilized for cDNA synthesis using a First‐strand cDNA synthesis kit (Thermo Scientific, USA) according to the manufacturer's protocol. Thermal cycler (Mastercycler® nexus, Eppendorf) was used for the amplification of the expression of apoptotic genes—Bax, Bcl2, Cytochrome‐C, and target gene EGFR with the help of Dream Taq DNA Polymerase PCR Master Mix (Thermo Scientific, USA) along with human gene‐specific forward and reverse primer sequences of the apoptotic genes and EGFR (Table ST1). The expression of the target genes was normalized to the Eukaryotic 18S rRNA.

[3] = tested on: CD24^+‐breast cancer cells; test: Mammosphere forming efficiency, sorted cells; format: cell-based, human; details: doxorubicin 0.01 μM + 1e
Description: (§2) TNBC cell lines—MDA‐MB‐231, MDA‐MB‐468, or the sorted CD24^+‐breast cancer cells, and CD24^−/CD44^+‐breast CSC populations from MDA‐MB‐231 [6] were seeded at a 1 × 10^4 cells/well density in mammosphere‐specific medium—Medium‐171 (Gibco, USA), supplemented with mammary epithelial growth supplement (MEGS) and B‐27 (Life technologies, Auckland, New Zealand) as described previously.[6], [26] TNBC cells or the sorted breast cancer cells and CSCs were plated onto poly‐hydroxyethyl methacrylate (Sigma‐Aldrich, USA) coated 24‐well plates and subjected to treatment with DMSO (Vehicle), Doxorubicin (0.01 and 0.1 μM) alone or with the potential EGFR inhibitors (compounds—1c, 1e, 1g, 1h, 1j, and 1k (5 μM) based on their low IC50 values) or a commercial EGFR inhibitor, PD153035 (10 μM). The suspension cultures were incubated under 5% CO2, at 37°C in a humidified atmosphere for 7 days. At the end of the treatment period, the images of mammospheres were taken at 10× magnification using a microscope (Olympus IX71, Tokyo, Japan). The size of spheres was measured using ImageJ software (NIH, Bethesda, MD, USA).

[4] = tested on: CD24^−/CD44^+‐breast CSCs; test: Mammosphere forming efficiency, sorted cells; format: cell-based, human; details: doxorubicin 0.01 μM + 1e
Description: as §2

Q: What does the source list for `c1cncc(C(c2c[nH]c3ccccc23)c2c[nH]c3ccccc23)c1` [1e]?
A: migratory potential (MDA‐MB‐468): significant decrease; migratory potential (MDA‐MB‐231): significant decrease; expression level of human CD44 in tumor tissue ([1]; with doxorubicin low dose vs low dose doxorubicin alone): significantly decreased; expression of human mesenchymal genes ALDH1A1, Fibronectin, N‐Cadherin, Vimentin ([1]; with low dose of doxorubicin, CSC xenograft): significantly decreased; expression of pro‐apoptotic genes Bax and Cytochrome‐C [2]: marked increase; mammosphere forming efficiency [3]: significant decrease; mammosphere forming efficiency [4]: significant decrease
